From patent US20050277600A1, “Compositions and methods of use of dimer digallates” (Mars, Incroporated, priority 2004, published 2005)

Legend:
rabbit aortic rings = assay: Relaxation of norepinephrine pre-constricted rabbit aortic rings ex vivo; conditions: for Max Relaxation: Experiment 3, 100 μM; for Aortic Ring Effective Conc,: Table 1 summary
Description: Several compounds were investigated for their effect on nitric oxide (NO) production and vasorelaxation using serum-free human umbilical vein endothelial cell (HUVEC) culture system in vitro and rabbit aortic ring model ex vivo, respectively. NO production by endothelial cells and relaxation of pre-constricted aortic rings are two main markers for evaluating vascular effects of test compounds. Effect of different procyanidins on endothelium-dependent relaxation was tested in an ex vivo experiment performed as previously described by Karim et al., J. Nutrl Suppl., 130 (8S): […]-[…] (2000), the relevant portions of which are hereby incorporated herein by reference. The advantage of using this method is that it assesses functional vascular end points. […] In summary, rabbit aortic rings were obtained from male New Zealand White rabbits. Following isolation, the rings were mounted in oxygenated Kreb's buffer, and pre-constricted with norepinephrine (NE) (10^-6 M). […] A positive control acetylcholine (10^-9 to 10^-4 M) and a negative control L-NAME were included in the experiment. Use of L-NAME, which is a NO synthase (NOS) inhibitor, allows for differentiating between endothelium dependent and endothelium independent relaxation events. […] The relaxation response was measured as a function of the decrease in the tension (g) exerted by the aortic rings over time […]. Data obtained were expressed as a percent relaxation of the norepinephrine (NE) constricted rings. The same statistical approach as described above was used. Dose response curves were obtained by plotting the average percent relaxation (+/-SE) against the concentrations used.

[1] = test system: human umbilical vein endothelial cell (HUVEC) NO production; assay: HUVEC NO production (NOx in cell culture medium, chemiluminescence); assay type: cell-based; conditions: for HUVEC Cells NOx, 2 hr / HUVEC Cells NOx, 24 hr / HUVEC Cells NOx, 5 d: Table 2 summary; for NO production, positive and negative controls: Experiment 1, acute, 2 hours
Description: Several compounds were investigated for their effect on nitric oxide (NO) production and vasorelaxation using serum-free human umbilical vein endothelial cell (HUVEC) culture system in vitro and rabbit aortic ring model ex vivo, respectively. NO production by endothelial cells and relaxation of pre-constricted aortic rings are two main markers for evaluating vascular effects of test compounds.
HUVECs obtained from a single donor were cultured in serum free, low protein (0.5 g/l), antibiotic-free cell culture medium supplemented with essential growth factors, nutrients and minerals. […] The cell culture medium was substituted with apo-transferrin, superoxide dismutase, and catalase to exclude secondary effects of test compounds involving their auto-oxidation mediated hydrogen peroxide formation.
NO production was evaluated by measuring the total amount of all major nitric oxide end products (NOx, including nitrate, nitrite, nitrosothiols) present in the cell culture medium. […] The amount of NO released from the culture medium was subsequently evaluated by measuring the chemiluminescence emitted during the stoichiometrical reaction between ozone and NO using a NO Analyzer (Sievers Instruments, Inc. Boulder, Colo.).
The data presented herein were obtained from three experiments and were expressed as the concentration of NO present (in μmol/l) (as NOx) in the cell culture medium+/−standard deviation (SD). The data were corrected for the NOx intrinsically present in the fully supplemented cell culture medium and normalized with respect to the volume of media from which the sample was drawn. Data were analyzed using Student's t-test with a 95% level of confidence. P values equal to or less than 0.05 were defined as statistically significant.
For the acute effect test, HUVECs were incubated with the test compounds for 2 hours at concentrations of 100 nM, 1 μM, and 10 μM at 37° C. and 5% CO2. […] (FIG. 1)
For the chronic effect test, HUVECs were incubated with 5 subsequent doses of test compounds, each for 24 hours. After each 24 hour treatment, culture medium was replaced.
For the acute effect test, HUVECs were incubated with a single dose of the test compounds for 24 hours at concentrations of 100 nM, 1 μM, and 10 μM at 37° C. and 5% CO2.

HUVEC = assay: HUVEC-mediated MTT reduction (toxic effects); conditions: for cell-mediated MTT reduction: 10 μM (20 μM for the Epicatechin gallates)
Description: Cell counts and total protein were used to assess intra-assay variation. Potential toxic effects of tested compounds were also monitored (MTT reduction was measured).

[2] = Experiment 1, chronic, 5 subsequent 24 hour doses
[3] = Experiment 2, chronic, 5 x 24 hours
[4] = Experiment 4, 10^−9M -10^4M (so in the source)

Molecule: O=C(O[C@H]1[C@H](c2c(O)cc(O)c3c2O[C@H](c2ccc(O)c(O)c2)[C@@H](OC(=O)c2cc(O)c(O)c(O)c2)C3)c2c(O)cc(O)cc2O[C@@H]1c1ccc(O)c(O)c1)c1cc(O)c(O)c(O)c1 [C-(4α→8)-C digallate, (+)-Catechin-(4α,8)-(+)-Catechin Digallate]
- relaxation response, percent relaxation of NE constricted rings (rabbit aortic rings; Experiment 2, 10^−4 M): 71.7+/−11.6%
- Max Relaxation (rabbit aortic rings): 72%
- Aortic Ring Effective Conc, (rabbit aortic rings): 100 µM

Molecule: Oc1cc(O)c2c(c1)O[C@H](c1ccc(O)c(O)c1)[C@@H](O)[C@@H]2c1c(O)cc(O)c2c1O[C@H](c1ccc(O)c(O)c1)[C@@H](O)C2 [C-(4α→8)-C, (+)-Catechin-(4α,8)-(+)-Catechin]
- NO production ([1]; Experiment 1, 24 h after single dose, 10 μM): increased NO production
- NO production [1, 2]: did not modulate NO production
- HUVEC Cells NOx, 2 hr [1]: no effect
- HUVEC Cells NOx, 24 hr [1]: 10 uM, sign. NOx incr.
- HUVEC Cells NOx, 5 d [1]: no effect
- relaxation response, percent relaxation of NE constricted rings (rabbit aortic rings; Experiment 1, 10^−4 M): 60.80+/−15.09%
- Max Relaxation (rabbit aortic rings): 61%
- Aortic Ring Effective Conc, (rabbit aortic rings): 100 µM

Molecule: O=C(O[C@H]1[C@H](c2c(O)cc(O)c3c2O[C@H](c2ccc(O)c(O)c2)[C@H](OC(=O)c2cc(O)c(O)c(O)c2)C3)c2c(O)cc(O)cc2O[C@@H]1c1ccc(O)c(O)c1)c1cc(O)c(O)c(O)c1 [C-(4α→8)-EC digallate, (+)-Catechin-(4α,8)-(−)-Epicatechin Digallate]
- HUVEC Cells NOx, 24 hr [1]: no effect
- HUVEC Cells NOx, 5 d [1]: No significant NOx increase;
- relaxation response, percent relaxation of NE constricted rings (rabbit aortic rings; Experiment 2, 10^−4 M): 40.7+/−9.2%
- Max Relaxation (rabbit aortic rings): 41%
- Aortic Ring Effective Conc, (rabbit aortic rings): 100 µM
- MTT reduction (HUVEC; Experiment 2, chronic, 5 x 24 hours, 1 μM or 2 μM for EGC): decline in MTT reduction
- cell-mediated MTT reduction (HUVEC; [3]): significant decline of cell-mediated MTT reduction

Molecule: Oc1cc(O)c2c(c1)O[C@H](c1ccc(O)c(O)c1)[C@@H](O)[C@@H]2c1c(O)cc(O)c2c1O[C@H](c1ccc(O)c(O)c1)[C@H](O)C2 [C-(4α→8)-EC]
- relaxation response (rabbit aortic rings; Experiment 2, 10^−9 to 10^−4 M): No significant relaxation response

Molecule: O=C(O[C@H]1[C@@H](c2c(O)cc(O)c3c2O[C@H](c2ccc(O)c(O)c2)[C@@H](OC(=O)c2cc(O)c(O)c(O)c2)C3)c2c(O)cc(O)cc2O[C@@H]1c1ccc(O)c(O)c1)c1cc(O)c(O)c(O)c1 [C-(4β→8)-C digallate, (+)-Catechin-(4β,8)-(+)-Catechin Digallate]
- relaxation response, percent relaxation of NE constricted rings (rabbit aortic rings; Experiment 2, 10^−4 M): 72.6+/−9.8%
- Max Relaxation (rabbit aortic rings): 73%
- Aortic Ring Effective Conc, (rabbit aortic rings): 100 µM

Molecule: Oc1cc(O)c2c(c1)O[C@H](c1ccc(O)c(O)c1)[C@@H](O)[C@H]2c1c(O)cc(O)c2c1O[C@H](c1ccc(O)c(O)c1)[C@@H](O)C2 [C-(4β→8)-C, (+)-Catechin-(4β,8)-(+)-Catechin]
- HUVEC NO production ([1]; Experiment 2, chronic, 5 subsequent 24 hour doses): increase in HUVEC NO production
- HUVEC Cells NOx, 2 hr [1]: no effect
- HUVEC Cells NOx, 24 hr [1]: no effect
- HUVEC Cells NOx, 5 d [1]: 10 uM, significant NOx increase
- relaxation response (rabbit aortic rings; Experiment 1, 10^−9 to 10^−4 M): No significant relaxation response
- relaxation response (rabbit aortic rings; Experiment 2, 10^−9 to 10^−4 M): No significant relaxation response

Molecule: Oc1cc(O)c2c(c1)O[C@H](c1ccc(O)c(O)c1)[C@@H](O)[C@H]2c1c(O)cc(O)c2c1O[C@H](c1ccc(O)c(O)c1)[C@H](O)C2 [C-(4β→8)-EC]
- relaxation response (rabbit aortic rings; Experiment 2, 10^−9 to 10^−4 M): No significant relaxation response
- cell-mediated MTT reduction (HUVEC; [3]): significant decline of cell-mediated MTT reduction

Molecule: Cc1c(O)c(C2c3c(O)cc(O)cc3OC(c3ccc(O)c(O)c3)C2O)c(O)c2c1OC(c1ccc(O)c(O)c1)C(O)C2 (stereo not drawn) [EC(4β→6)EC-8methyl]
- relaxation response (rabbit aortic rings; Experiment 2, 10^−9 to 10^−4 M): No significant relaxation response

Molecule: O=C(O[C@@H]1[C@@H](c2c(O)cc(O)c3c2O[C@H](c2ccc(O)c(O)c2)[C@@H](OC(=O)c2cc(O)c(O)c(O)c2)C3)c2c(O)cc(O)cc2O[C@@H]1c1ccc(O)c(O)c1)c1cc(O)c(O)c(O)c1 [EC-(4β→8)-C digallate, (−)-Epicatechin-(4β,8)-(+)-Catechin Digallate]
- relaxation response, percent relaxation of NE constricted rings (rabbit aortic rings; Experiment 2, 10^−4 M): 56.7+/−15.4%
- Max Relaxation (rabbit aortic rings): 57%
- Aortic Ring Effective Conc, (rabbit aortic rings): 100 µM

Molecule: Oc1cc(O)c2c(c1)O[C@H](c1ccc(O)c(O)c1)[C@H](O)[C@H]2c1c(O)cc(O)c2c1O[C@H](c1ccc(O)c(O)c1)[C@H](O)C2 [EC-(4β→8)-EC]
- relaxation response (rabbit aortic rings; Experiment 1, 10^−9 to 10^−4 M): No significant relaxation response
- MTT reduction (HUVEC; [2]): decline in MTT reduction

Molecule: O=C(O[C@@H]1Cc2c(O)cc(O)cc2O[C@@H]1c1ccc(O)c(O)c1)c1cc(O)c(O)c(O)c1 [ECG, Epicatechingallate, reference compound]
- relaxation response (rabbit aortic rings; [4]): No significant relaxation response
- cell-mediated MTT reduction (HUVEC; [3]): significant decline of cell-mediated MTT reduction

Molecule: Oc1cc(O)c2c(c1)O[C@H](c1cc(O)c(O)c(O)c1)[C@H](O)C2 [EGC, Epigallocatechin, reference compound]
- relaxation response (rabbit aortic rings; [4]): No significant relaxation response

Molecule: O=C(O[C@@H]1Cc2c(O)cc(O)cc2O[C@@H]1c1cc(O)c(O)c(O)c1)c1cc(O)c(O)c(O)c1 [EGCG, Epigallocatechingallate, reference compound]
- modulation of NO production ([1]; Experiment 2, single dose, 24 hours, 10 μM): statistically significant ability to modulate NO production
- HUVEC Cells NOx, 24 hr [1]: 20 uM, sign. NOx inc.
- HUVEC Cells NOx, 5 d [1]: No significant NOx increase;
- relaxation response (rabbit aortic rings; [4]): No significant relaxation response

Molecule: O=C(O)c1cc(O)c(O)c(O)c1 [Gallic Acid, reference compound]
- relaxation response (rabbit aortic rings; [4]): No significant relaxation response

Molecule: COC(=O)[C@@H](N)CCCNC(=N)N[N+](=O)[O-] [L-NAME, reference compound]
- relaxation responses after pre-treatment with NOS inhibitor (rabbit aortic rings; vessels pre-treated with negative control): relaxation responses were attenuated

Molecule: CNC(=N)NCCC[C@H](N)C(=O)O [L-NNMA, reference compound]
- NO production, positive and negative controls ([1]; compared to vehicle): completely attenuated the acetylcholine and histamine-NO production
- NOx production, positive and negative controls ([1]; Experiment 2, single dose, 24 hours, compared to vehicle): completely attenuated the acetylcholine-induced NO production

Molecule: CC(=O)OCC[N+](C)(C)C [acetylcholine, reference compound]
- concentration producing a relaxation response (rabbit aortic rings; positive control): 10^−7 M
- concentration reaching maximal relaxation (rabbit aortic rings; positive control): 10^−6 M

Molecule: NCCc1c[nH]cn1 [histamine, reference compound]
- NO production, positive and negative controls ([1]; compared to vehicle): statistically significant increase in NO production

Molecule: (−)-Epicatechin-(4β,8)-(OMethyl)4-(−)-Epicatechin Digallate [EC-(4β→8)(OMethyl)4-EC digallate]
- HUVEC Cells NOx, 2 hr [1]: no effect
- HUVEC Cells NOx, 24 hr [1]: no effect
- HUVEC Cells NOx, 5 d [1]: 10 uM, significant NOx increase
- relaxation response (rabbit aortic rings; Experiment 1, 10^−9 to 10^−4 M): No significant relaxation response
